Results: US8632749B2, “Two photon tracer, method for the preparation thereof and the use thereof in screening anticancer agents” (SNU R&DB Foundation, priority 2009, dated 2014)
Like-named read-outs stand apart in the source and are kept apart here.

Key:
[1] = test system: A549 cells; assay: Effect of anticancer agents on AG2 uptake by A549 cells
[2] = One-photon absorption/emission spectra and fluorescence quantum yield; type: physicochemical; settings: for Φ, fluorescence quantum yield: ±15%; for pH sensitivity of fluorescence: biologically relevant pH range
Procedure: Absorption spectra were recorded on a Hewlett-Packard 8453 diode array spectrophotometer, and fluorescence spectra were obtained with Amico-Bowman series 2 luminescence spectrometer with a 1-cm standard quartz cell. The fluorescence quantum yield was determined by using Coumarin 307 and Rhodamine B as the reference.

[3] = from The Handbook (Molecular Probes); cited from earlier work
[4] = Measurement of two-photon cross section (TPEF method); type: physicochemical; settings: for Φδmax, two-photon action cross-section / λmax of the two-photon absorption spectrum / δmax, peak two-photon cross-section: PBS buffer; for δmax, peak two-photon cross-section: ±15%
Procedure: The two-photon cross section (δ) was determined using the femto second (fs) fluorescence measurement technique as described previously. AG1, AG2, Cy3-Glc-α, and 2-NBDG were dissolved in 30 mM PBC buffer (137 mM NaCl, 3 mM KCl, 10 mM Na2HPO4, 2 mM KH2PO4, pH 7.4) at a concentration of 5.0×10^−6 M and then the two-photon induced fluorescence intensity was measured at 740-940 nm by using fluorescein (8.0×10^−5 M, pH=11) as the reference, whose two-photon property has already been well characterized. The intensities of the two photon induced fluorescence spectra of the reference and sample emitted at the same excitation wavelength were determined.
The TPA cross section was calculated according to Eq. 1,
The results are shown in FIG. 1 and the above-described Table 1.

[5] = test system: A549 cells; assay: Tracer uptake by A549 cells, TPM imaging (optimum concentration); type: cell-based; settings: for Cell death in A549 cells: 100 μM probe, 30 min; for Uptake rate (time) in A549 cells: A549 cells labeled with tracer
Procedure: (§1) A549 human lung carcinoma cells, HeLa human cervical carcinoma cells, NIH/3T3 murine fibroblast cells, and HEK293 human embryonic kidney cells were obtained from American Type Culture Collection (ATCC, Manassas, Va., USA). A549 cells were cultured in RPMI 1640 (WelGene) supplemented with heat-inactivated 10% FBS (WelGene), penicillin (100 units/mL), and streptomycin (100 μg/mL).
For labeling, the growth medium was removed and replaced with serum-free RPMI 1640 (without D-glucose) (United Search Partners, Austin, Tex., USA).
The cells were treated and incubated with the required concentration of a tracker at 37° C. for 10 min.
Thereafter, the cells were washed three times with phosphate buffered saline (PBS; Gibco) and then imaged.
(§2) For comparison of the relative uptake of AG1 and AG2 per unit cell, the TPEF intensities from regions of interest were chosen without bias from among 40-60 cells as determined by the photomultiplier tube (PMT) and the data were digitalized using Histogram (a program for data analysis).
In determine the optimum concentration for the uptake experiment, TPM images of A549 cells labeled for 30 min with 6, 12.5, 25, 50, and 100 μM of AG1 and AG2 were compared. The image appeared brighter as the probe concentration was increased up to 50 μM; however, at higher concentrations than this, cell death was observed.
Moreover, the uptake rate was faster (600 vs 800 s) and the TPM image was brighter when the cells were labeled with AG2 than when they were treated with AG1 (FIG. 3). Therefore, 50 μM of AG2 was used for the uptake experiments.

[6] = test system: A549 cells; assay: Viability of A549 cells with CCK-8 kit; type: cell-based, human; settings: 50 μM, 10 min
Procedure: FIG. 7: Viability of A549 cells in the presence of AG2 as measured by using CCK-8 kit. The cells were incubated with 50 μM AG2 for 10 min.
In order to confirm that the tracer couldn't affect the viability of A549 cells in the incubation condition, a CCK-8 kit (Cell Counting Kit-8, Dojindo, Japan) was used according to the manufacturer's protocol.

[7] = test system: A549, HeLa, HEK293 and NIH/3T3 cells; assay: Relative AG2 uptake by cancer and normal cell lines (TPM); type: cell-based; settings: A549, HeLa vs HEK293, NIH/3T3
Source text: In order to assess whether AG2 is selectively taken up by cancer cells, the efficiencies of AG2 uptake by A549 (lung carcinoma cell line), HeLa (cervical cancer cell line), HEK293 (human embryonic kidney 293 cell line), and NIH/3T3 (murine fibroblast cell line) cells were compared. […] Therefore, AG2 can be used for visualizing glucose uptake in living cells by TPM, without subjecting the cells to glucose starvation.
as §1
NIH/3T3 cells, HeLa cells, and HEK293 cells were cultured in DMEM (WelGene) supplemented with heat-inactivated 10% FBS (WelGene), penicillin (100 units/mL), and streptomycin (100 μg/mL). All the cell lines were maintained in a humidified atmosphere of 5% CO2 and 95% air at 37° C. […]
as §2

[8] = test system: A549 cells; assay: Competition experiment for uptake pathway; type: cell-based, human; settings: for Reduction of AG2 fluorescence intensity in A549 cells: AG2 50 μM, 10 min
Procedure: To determine whether the intracellular uptake pathway of AG2 is relevant to that of D-glucose, a competition experiment was conducted.
To this end, A549 cells were incubated with AG2 (50 μM) for 10 min in the presence of 0, 10, and 50 mM D-glucose, and 50 mM L-glucose, and relative AG2 uptake was determined by TPM.

[9] = test system: Human colon cancer tissue and normal tissue; assay: TPM imaging of AG2 uptake in human colon normal and cancer tissue slices
Procedure: In the present invention, an additional assessment was made of the utility of AG2 in tissue imaging for the diagnosis of colon cancer. In this regard, the images of normal- and cancer-tissue slices from colon-cancer patients were employed. […] The tissues were incubated in artificial cerebrospinal fluid (ACSF) for 4 h at 37° C. in the absence and presence of taxol (50 μM), after which AG2 uptake was monitored with TPM by following the change in TPEF at a depth of 100 μm.
Human colon cancer tissue and normal tissue were obtained from colon cancer patients by conducting colonoscopic examinations and taking samples.
Normal tissues, cancerous tissue, and cancerous tissue containing 50 μM taxol were incubated in artificial cerebrospinal fluid (ACSF) bubbled with 95% O2 and 5% CO2 for 4 hrs at 37° C. The tissues were then washed three times with ACSF, transferred to glass-bottomed dishes (MatTek), added with 50 μM AG2, and observed by TPM.
To determine whether the relative uptake was affected by incubation in ACSF, the same experiment was conducted with normal tissue and colon cancerous tissue obtained immediately after the colonoscopic biopsy.

[10] = test system: A549 cells; settings: 0.049 µM

| Compound | λ(1)max, one-photon absorption maximum ([2]; PBS buffer) | λflmax, one-photon emission maximum ([2]; PBS buffer) | Φ, fluorescence quantum yield ([2]; PBS buffer) | λ(1)max, one-photon absorption maximum ([2]; DMF (ETN 0.386)) | λflmax, one-photon emission maximum ([2]; DMF (ETN 0.386)) | Φ, fluorescence quantum yield ([2]; DMF (ETN 0.386)) | λ(1)max, one-photon absorption maximum ([2]; Dioxane (ETN 0.164)) | λflmax, one-photon emission maximum ([2]; Dioxane (ETN 0.164)) | Φ, fluorescence quantum yield ([2]; Dioxane (ETN 0.164)) | λ(1)max, one-photon absorption maximum ([2]; EtOH (ETN 0.654)) | λflmax, one-photon emission maximum ([2]; EtOH (ETN 0.654)) | Φ, fluorescence quantum yield ([2]; EtOH (ETN 0.654)) | λ(1)max, one-photon absorption maximum ([2]; H2O (ETN 1.00)) | λflmax, one-photon emission maximum ([2]; H2O (ETN 1.00)) | Φ, fluorescence quantum yield ([2]; H2O (ETN 1.00)) | pH sensitivity of fluorescence [2] | Φδmax, two-photon action cross-section [4] | λmax of the two-photon absorption spectrum [4] | δmax, peak two-photon cross-section [4] | Cell death in A549 cells [5] | further results |
| --- | --- | --- | --- | --- | --- | --- | --- | --- | --- | --- | --- | --- | --- | --- | --- | --- | --- | --- | --- | --- | --- |
| COc1ccc(C[C@@H](O)c2cc(OC)c(OC)c(OC)c2)cc1O [Combrestastatin, combretastatin] |  |  |  |  |  |  |  |  |  |  |  |  |  |  |  |  |  |  |  |  | AG2 uptake by A549 ([1]; agent 2 μM, after 6 h): 70.2%; AG2 uptake by A549 ([1]; agent 2 μM, after 12 h): 53.2% |
| cyanine-3-linked O-1-glycosylated glucose [Cy3-Glc-α, reference compound] | 545 nm | 555 nm | 0.01 |  |  |  |  |  |  |  |  |  |  |  |  |  |  |  |  |  |  |
| O=[N+]([O-])c1ccc(NC2C(O)OC(CO)C(O)C2O)c2nonc12 [2-NBDG, 2-[N-(7-nitrobenz-2-oxa-1,3-diazol-4-yl)-amino]-2-deoxy-D-glucose] |  |  |  |  |  |  |  |  |  |  |  |  |  |  |  |  |  |  |  |  | λ(1)max, one-photon absorption maximum [3]: 465 nm; λflmax, one-photon emission maximum [3]: 540 nm |
| CC(=O)c1ccc2cc(N(C)CC(=O)N3CCN(CCOC4OC(CO)C(O)C(O)C4O)CC3)ccc2c1 (centres unmarked) [AG2] | 375 nm | 501 nm | 0.56 | 369 nm | 449 nm | 1.00 | 362 nm | 425 nm | 0.72 | 370 nm | 480 nm | 0.97 | 375 nm | 501 nm | 0.56 | pH insensitive | 88 GM | 780 nm | 155 GM | some cell death was observed | Uptake rate (time) in A549 cells [5]: 600 s; Effect on viability of cells (CCK8 kit) [6]: negligible toxicity; Efficiency of AG2 uptake by cell lines [7]: most efficient in A549 and HeLa cells, followed by HEK293 and NIH/3T3 cells; Reduction of AG2 fluorescence intensity in A549 cells ([8]; medium with 10 mM D-glucose vs glucose-depleted medium): about 16%; Reduction of AG2 fluorescence intensity in A549 cells ([8]; medium with 50 mM D-glucose vs glucose-depleted medium): ~74%; AG2 fluorescence intensity in A549 cells ([8]; medium with 50 mM L-glucose): not affected; AG2 uptake by A549 cells ([8]; presence of 55 mM D-/L-alanine): not influenced; AG2 uptake in cancer tissue versus normal tissue ([9]; colon tissue slices, 50 μM AG2, depth 100 μm): much faster than in the normal tissue |
| CC(=O)O[C@H]1C(=O)[C@@]2(C)[C@H]([C@H](OC(=O)c3ccccc3)[C@]3(O)C[C@H](OC(=O)[C@H](O)[C@@H](NC(=O)c4ccccc4)c4ccccc4)C(C)=C1C3(C)C)[C@]1(OC(C)=O)CO[C@@H]1C[C@@H]2O [Taxol, taxol] |  |  |  |  |  |  |  |  |  |  |  |  |  |  |  |  |  |  |  |  | AG2 uptake of cancer tissue pretreated with agent ([9]; colon cancer tissue, agent 50 μM for 4 hrs in ACSF, depth 100 μm): much slower AG2 uptake than the untreated one; AG2 uptake by A549 ([10]; 6 h): 89.6%; AG2 uptake by A549 ([10]; 12 h): 69.5%; Cellular uptake of AG2 versus incubation time with agent ([1]; A549 cells incubated 1, 3, 6, 12, 24 h with agent): lower with longer incubation times; AG2 uptake by A549 ([1]; agent 49 nM (second line, r8), after 6 h): 96.7%; AG2 uptake by A549 ([1]; agent 49 nM (second line, r8), after 12 h): 81.8%; AG2 uptake by A549 ([1]; agent 9.8 μM, after 6 h): 69.5%; AG2 uptake by A549 ([1]; agent 9.8 μM, after 12 h): 50.7% |
| CC(=O)c1ccc2cc(N(C)CC(=O)NCCOCCOCCNCCOC3OC(CO)C(O)C(O)C3O)ccc2c1 (centres unmarked) [AG1] | 373 nm | 501 nm | 0.90 | 366 nm | 451 nm | 1.00 | 360 nm | 434 nm | 0.59 | 364 nm | 479 nm | 1.00 | 373 nm | 501 nm | 0.90 | pH insensitive | 86 GM | 780 nm | 95 GM | some cell death was observed | Φδ value from TP action spectrum ([4]; at 780 nm): approximately 90 GM; Uptake rate (time) in A549 cells [5]: 800 s |
